# “And” between values parts separate entries of the source, which are not always exact repeats. Equal values may be shown once.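 Growth conditions: 96-well plates. Treatment: test compound, 48 hours, 5 concentrations. Analysis: linear interpolation between bracketing concentrations; unreached endpoints set to highest concentration. The concentration for 50% growth inhibition is given as GI50. TGI marks complete inhibition of growth.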
# Tests used:
# Assay in all cases: NCI-60 cell line screen, 48 h
# [1] = tested on: UACC-257 melanoma
# [2] = tested on: HS 578T breast
# [3] = tested on: OVCAR-3 ovarian
# [4] = tested on: HT29 colon
# [5] = tested on: SNB-19 CNS
# [6] = tested on: T-47D breast
# [7] = tested on: DU-145 prostate
# [8] = tested on: MALME-3M melanoma
# [9] = tested on: KM12 colon
# [10] = tested on: A549 NSCLC
Compound,GI50 [1],TGI [1],GI50 [2],TGI [2],GI50 [3],TGI [3],GI50 [4],TGI [4],GI50 [5],TGI [5],GI50 [6],TGI [6],GI50 [7],TGI [7],GI50 [8],TGI [8],GI50 [9],TGI [9],GI50 [10],TGI [10]
CCCCCCNC(=O)Oc1ccc(/C(=C(/C)Cc2ccc(OC)cc2)c2ccc(OCCN(C)C)cc2)cc1,6.42 µM,11.9 µM,5.87 µM,12.3 µM,4.93 µM,9.79 µM,1.2 µM,4.58 µM,5.6 µM,10.4 µM,1.41 µM,7.12 µM,5.55 µM,10.4 µM,4.49 µM,9.64 µM,4.98 µM,10.1 µM,5.65 µM,10.8 µM
CCOC(=O)Nc1nc2cc(OCC)ccc2s1,> 100 µM,> 100 µM,50 µM,> 100 µM,35 µM,> 100 µM,4.26 µM,> 100 µM,> 100 µM,> 100 µM,35 µM,> 100 µM,> 100 µM,> 100 µM,> 100 µM,> 100 µM,3.86 µM,> 100 µM,9.83 µM,> 100 µM
CC(=O)c1cc(-c2ccccc2N)n(-c2ccc3c(c2)OCO3)c1C,27.3 µM,> 100 µM,0.303 µM,> 85.4 µM,0.066 µM,0.537 µM,0.292 µM,> 35.6 µM,0.299 µM,> 100 µM,0.852 µM,> 100 µM,0.0408 µM,> 100 µM,2.88 µM,> 83.3 µM,0.295 µM,> 37.7 µM,0.313 µM,> 100 µM
COc1cc2c(c(OC)c1OC)-c1ccc(O)c(=O)cc1[C@@H](NC(C)=O)CC2,4.34 µM,33.3 µM and 77.1 µM,14.3 µM,> 100 µM and 71.4 µM,4.35 µM,> 100 µM,6.91 µM,> 100 µM and 89.7 µM,7.14 µM,> 100 µM,8.84 µM,> 100 µM,9.82 µM,> 100 µM,19.2 µM,97.7 µM,8.68 µM,> 100 µM and 32.8 µM,10.1 µM,89.3 µM and > 100 µM
Cc1cc(=O)oc2cc(OC(=O)N(CCCl)CCCl)ccc12,,> 100 µM,,> 100 µM,,> 100 µM,,> 100 µM,,> 100 µM,,> 100 µM,,> 100 µM,,> 100 µM,,> 100 µM,,> 100 µM
Cn1cc(C2=C(c3cn(C)c4cc(N)ccc34)C(=O)NC2=O)c2ccccc21,5.89 µM,18.1 µM,1.06 µM,> 19.6 µM,0.721 µM,> 12.2 µM,1.07 µM,6.8 µM,5.45 µM,24.3 µM,5.7 µM,> 21.6 µM,1.84 µM,16.8 µM,11 µM,> 22.3 µM,1.45 µM,11.8 µM,3.09 µM,> 25 µM
COc1cc(/C=C2\CN(C(=O)CCN3CCC(=NO)CC3)C/C(=C\c3cc(OC)c(OC)c(OC)c3)C2=O)cc(OC)c1OC,0.51 µM,2.44 µM,0.441 µM,13.5 µM,0.391 µM,1.26 µM,0.369 µM,1.51 µM,0.452 µM,1.58 µM,0.803 µM,10.6 µM,0.657 µM,1.7 µM,0.211 µM,0.579 µM,0.263 µM,0.731 µM,1.15 µM,5.82 µM
CSc1nsc(S/C=C\C(=O)c2ccc(C)cc2)n1,22.6 µM,49.2 µM,0.187 µM,6.33 µM,17 µM,34.5 µM,19 µM,> 57.1 µM,28.1 µM,> 68.2 µM,23 µM,> 62.2 µM,20.5 µM,> 49.5 µM,19 µM,38.6 µM,28 µM,> 64.7 µM,35.1 µM,> 90.5 µM
CCOC(=O)c1c2c(n(Cc3ccccc3)c1C)-c1nc(Cc3ccccc3)[nH]c1C(=O)C2=O,2.82 µM,8.71 µM,2.26 µM,5.34 µM,1.13 µM,2.47 µM,1.64 µM,3 µM,1.72 µM,3.09 µM,0.496 µM,2.64 µM,1.58 µM,2.92 µM,1.61 µM,3.26 µM,1.83 µM,3.83 µM,2.5 µM,7.15 µM
CCCCNC(=O)Oc1ccc(/C(=C(/CC)Cc2ccccc2)c2ccc(OCCN3CCCCCC3)cc2)cc1,19.8 µM,40.2 µM,19.7 µM,44.1 µM,19.9 µM,42.6 µM,18.1 µM,36.3 µM,39.8 µM,> 100 µM,14.5 µM,36.9 µM,41.7 µM,> 100 µM,18.2 µM,35.3 µM,31.7 µM,> 100 µM,32.4 µM,> 100 µM
Cc1nn(CNc2ccccc2C(F)(F)F)c(=S)n1/N=C/c1ccc(F)cc1,59.2 µM,> 100 µM,72.3 µM,> 100 µM,> 100 µM,> 100 µM,42.1 µM,> 100 µM,94 µM,> 100 µM,> 100 µM,> 100 µM,> 100 µM,> 100 µM,> 100 µM,> 100 µM,> 100 µM,> 100 µM,> 100 µM,> 100 µM
COc1cc2ncnc3c2cc1OCCCCCN(C)Cc1ccc(Br)cc1N3,17.9 µM and > 10 µM,> 100 µM,10.2 µM and 1.52 µM,> 100 µM,2.48 µM and 1.76 µM,> 100 µM,6.34 µM and 3.35 µM,> 100 µM,24.6 µM and > 10 µM,> 100 µM,0.643 µM and 0.446 µM,85.4 µM and 9.5 µM,0.676 µM and 0.555 µM,> 100 µM,1.47 µM and 6.85 µM,23.3 µM and > 10 µM,13.2 µM and > 10 µM,> 100 µM,6.23 µM and 1.9 µM,> 100 µM
Oc1c(CN2CCCC2)cc(CSCc2ccccc2)c2cccnc12,2.14 µM,7.03 µM,4.7 µM,25 µM,0.44 µM,2.7 µM,3.88 µM,14 µM,1.72 µM,13.5 µM,1.15 µM,8.26 µM,1.28 µM,10.7 µM,2.04 µM,9.06 µM,0.635 µM,11.9 µM,1.73 µM,10.6 µM
CC(C(=O)O)c1ccc(-c2ccccc2)c(F)c1 (stereo unspecified),,> 100 µM,,> 100 µM,,> 100 µM,,> 100 µM,,> 100 µM,,> 100 µM,,> 100 µM,,> 100 µM,,> 100 µM,,> 100 µM
C/C(=N\NC(=S)N1CCN(c2ccccn2)CC1)c1nccs1,,12.8 µM,,38.3 µM,0.00821 µM and < 0.0205 µM,,,33.7 µM,,32.8 µM,0.855 µM,22.1 µM,,14.1 µM,,18.5 µM,,18.9 µM,,13.3 µM
O=C(Nc1ccc(Br)cc1)Nc1nn(C(=O)Nc2ccc(Br)cc2)c2ccccc12,> 77.6 µM,> 100 µM,13.7 µM,55.8 µM,33.9 µM,> 77.6 µM,> 100 µM,> 100 µM,23.6 µM,81 µM,28.1 µM,> 93 µM,28.9 µM,> 100 µM,> 44.3 µM,> 85.3 µM,> 88.8 µM,> 100 µM,51.5 µM,> 100 µM
O=C(O)c1cccc(/C=C/c2ccccc2)c1,,> 100 µM,,> 100 µM,,> 100 µM,,> 100 µM,,> 100 µM,,> 100 µM,,> 100 µM,,> 100 µM,,> 100 µM,,> 100 µM
COC(=O)c1ccc2c(c1)C(=O)c1c-2n(CCCN)c(=O)c2cc(OC)c(OC)cc12,14.5 µM,> 41.5 µM,18.5 µM,42.1 µM,10.2 µM,> 56.8 µM,13.8 µM,31.4 µM,19.5 µM,42.6 µM,18.9 µM,44.9 µM,7.89 µM,22.8 µM,18.7 µM,45.7 µM,7.47 µM,26 µM,7.49 µM,27.2 µM
C/C(=C(/c1ccc(O)cc1)c1ccc(Cl)cc1)c1ccccc1,0.822 µM,2.77 µM,0.6 µM,1.67 µM,0.552 µM,1.31 µM,0.852 µM,3.17 µM,0.76 µM,2.18 µM,0.762 µM,3.22 µM,0.719 µM,1.91 µM,0.459 µM,1 µM,0.543 µM,1.22 µM,0.723 µM,2.53 µM
Cc1cnc(Nc2ccc(OCCN3CCCC3)cc2)nc1Nc1cccc(S(=O)(=O)NC(C)(C)C)c1,1.28 µM and 3.99 µM,2.83 µM and > 10 µM,0.181 µM and 0.568 µM,2.28 µM and 3.58 µM,0.464 µM and 1.36 µM,14.7 µM and > 10 µM,0.0973 µM and 0.564 µM,2.28 µM and 5.12 µM,2.66 µM and 3.4 µM,15.6 µM and > 10 µM,2.13 µM and 2.11 µM,24.2 µM and > 10 µM,0.252 µM and 1.16 µM,13.6 µM and > 10 µM,0.894 µM and 2.45 µM,12.3 µM and > 6.36 µM,0.361 µM,8.72 µM and > 10 µM,0.335 µM and 1.36 µM,7.29 µM and 6 µM
COc1cc(/C=C2\CC3C4CC=C5C[C@@H](O)CC[C@]5(C)C4CC[C@]3(C)C2=O)ccc1OCCCn1ccnc1 (stereo partly specified),15.8 µM,35.3 µM,26.9 µM,53.7 µM,19.1 µM,39.4 µM,13.7 µM,> 100 µM,38.8 µM,> 100 µM,29.3 µM,> 100 µM,15.4 µM,29.6 µM,17.3 µM,36.9 µM,25.2 µM,54.8 µM,17.1 µM,56.4 µM
C[C@]12CC[C@H]3[C@@H](CC[C@]4(O)C[C@@H](O)CC[C@]34CO)[C@@]1(O)CC[C@@H]2C1=CC(=O)OC1,,12.7 µM,,> 100 µM,,3.21 µM,,7.81 µM,,23.6 µM,,13.9 µM,,2.24 µM,,6.47 µM,,17 µM,,1.74 µM
NNS(=O)(=O)c1cc(C(=O)O)cc(C(=O)O)c1,,> 100 µM,,> 100 µM,,> 100 µM,,> 100 µM,,> 100 µM,,> 100 µM,,> 100 µM,,> 100 µM,,> 100 µM,,> 100 µM
C[C@]12CC[C@@H](OC(=O)N(CCCl)N=O)C[C@@H]1CC[C@@H]1[C@@H]2CC[C@]2(C)C(=O)CC[C@@H]12,3.99 µM,23.9 µM,3.04 µM,17.9 µM,5.76 µM,19.9 µM,3.26 µM,15.9 µM,0.526 µM,26 µM,2.82 µM,55.9 µM,0.671 µM,7.54 µM,18.1 µM,50.2 µM,2.81 µM,16.3 µM,0.73 µM,4.69 µM
Oc1c(Cl)cc(Cl)cc1Sc1cc(Cl)cc(Cl)c1O,2.65 µM and 1.94 µM,7.86 µM and 5.71 µM,2.47 µM and 2.32 µM,9.48 µM and 8.31 µM,3.66 µM and 2.96 µM,11.3 µM and 10.2 µM,3.71 µM and 2.22 µM,10.9 µM and 6.25 µM,4.84 µM and 3.23 µM,32.2 µM and 14.2 µM,3.23 µM and 2.45 µM,18 µM and 7.78 µM,5.01 µM and 4.18 µM,20.8 µM and 15.5 µM,3.32 µM and 2.51 µM,13.7 µM and 6.83 µM,3.54 µM and 2.93 µM,10.7 µM and 10.5 µM,3.37 µM and 3.03 µM,11.9 µM and 10.6 µM
